{"source": "patent US7214709B2", "about": "“Arginine/ascorbic acid mixed powder as an oral supplement” (priority 2000, dated 2007)", "tested_on": "O=NOO- derived from the reaction of NO· with O2·-", "experiment": "Formation of peroxynitrite from reaction of NO radical with superoxide", "details": "in vitro and in vivo condition", "description": "Ascorbate is a typical scavenger of O2·^− and thus could inhibit the production of O═NOO^−. […] Based on this discovery, an administration of a great amount of arginine combined with ascorbic acid in an amount 1/5 times and more, for example from 1/5 to 20 times, especially from 1.5 to 20 times the amount of the arginine can be expected to prevent peroxidative injuries of cells caused by the ion, O═NOO^−. Therefore, the present invention also includes the following embodiments."}
{"smiles": "O=C1O[C@H]([C@@H](O)CO)C(O)=C1O", "note": "[ascorbic acid, L-ascorbic acid]", "values": [{"measurement": "Formation of O=NOO- (peroxynitrite)", "value": "retards formation"}]}
